This passage reports viscosity results from the NIST ThermoML archive (doi:10.1021/acs.jced.7b00181).

The structures appear in SMILES notation. Numbers after ± are expanded uncertainties.

The conditions of the data set: Liquid, Concentric cylinders viscometry.

For orientation: viscosity means the resistance of a fluid to flow. Turning to `CCCCCCCCCCCCCC[P+](CCCCCC)(CCCCCC)CCCCCC.FC(F)(F)C(F)(F)[P-](F)(F)(F)(C(F)(F)C(F)(F)F)C(F)(F)C(F)(F)F`, the viscosity is, setting by setting: (298.15 K, 10000 kPa) 413 ± 32 mPa·s; (298.15 K, 50000 kPa) 913 ± 75 mPa·s; (298.15 K, 75000 kPa) 1417 ± 120 mPa·s; (313.15 K, 10000 kPa) 189 ± 15 mPa·s; (313.15 K, 50000 kPa) 401 ± 33 mPa·s; (313.15 K, 75000 kPa) 615 ± 52 mPa·s. The viscosity runs as follows: (323.15 K, 10000 kPa) 114 ± 9 mPa·s; (323.15 K, 50000 kPa) 223 ± 17 mPa·s; (323.15 K, 75000 kPa) 364 ± 29 mPa·s; (333.15 K, 10000 kPa) 78.1 ± 5.7 mPa·s; (333.15 K, 50000 kPa) 159 ± 12 mPa·s; (333.15 K, 75000 kPa) 232 ± 18 mPa·s. Also, the viscosity reads like this: (343.15 K, 10000 kPa) 53.5 ± 3.9 mPa·s; (343.15 K, 50000 kPa) 112 ± 8 mPa·s; (343.15 K, 75000 kPa) 162 ± 12 mPa·s; (353.15 K, 10000 kPa) 37.9 ± 2.8 mPa·s; (353.15 K, 50000 kPa) 76.3 ± 5.6 mPa·s; (353.15 K, 75000 kPa) 109 ± 8 mPa·s.

`CCCCCCOS(=O)(=O)[O-].CC[n+]1ccn(C)c1` [3-ethyl-1-methyl-1H-imidazolium hexyl sulfate]: the viscosity is, setting by setting: (298.15 K, 10000 kPa) 354 ± 27 mPa·s; (298.15 K, 50000 kPa) 571 ± 45 mPa·s; (298.15 K, 75000 kPa) 737 ± 59 mPa·s; (313.15 K, 10000 kPa) 154 ± 12 mPa·s; (313.15 K, 50000 kPa) 238 ± 19 mPa·s; (313.15 K, 75000 kPa) 304 ± 25 mPa·s. Besides, the viscosity by setting is: (323.15 K, 10000 kPa) 94 ± 7 mPa·s; (323.15 K, 50000 kPa) 142 ± 11 mPa·s; (323.15 K, 75000 kPa) 186 ± 14 mPa·s; (333.15 K, 10000 kPa) 63.8 ± 4.6 mPa·s; (333.15 K, 50000 kPa) 94.8 ± 6.9 mPa·s; (333.15 K, 75000 kPa) 120 ± 9 mPa·s. Also, the viscosity (343.15 K, 10000 kPa) is 44.5 ± 3.2 mPa·s; the viscosity (343.15 K, 50000 kPa) turned out to be 65.9 ± 4.8 mPa·s; the viscosity (343.15 K, 75000 kPa) is recorded as 82.1 ± 6 mPa·s; the viscosity (353.15 K, 10000 kPa) is 31.4 ± 2.3 mPa·s; the viscosity (353.15 K, 50000 kPa) amounted to 46 ± 3.4 mPa·s; the viscosity (353.15 K, 75000 kPa) is recorded as 56.9 ± 4.2 mPa·s.
